# Values quoted from earlier work, collected in patent publication US20180333418A1, “USE OF PAN FGFR INHIBITORS AND METHOD OF IDENTIFYING PATIENTS WITH CANCER ELIGIBLE FOR TREATMENT WITH A PAN FGFR INHIBITOR” (BAYER PHARMA AKTIENGESELLSCHAFT, priority 2014, published 2018).
# What was measured:
# [1] = test system: ovarian cancer cell line A2780; conditions: Guagnano et al.; cited from earlier work
# [2] = test system: FGFR1-amplified osteosarcoma cell line G-292; conditions: Guagnano et al.; cited from earlier work
compound,measurement,setting,value
CCN1CCN(c2ccc(Nc3cc(N(C)C(=O)Nc4c(Cl)c(OC)cc(OC)c4Cl)ncn3)cc2)CC1 [BGJ398],sensitivity in vitro towards treatment,[1],sensitive
same,anti-proliferative effects,[2],anti-proliferative effects
